How the values were obtained:
mouse neutrophils = assay: NET formation assay on neutrophils isolated from orally dosed mice; assay type: in vivo; conditions: 50 mg/kg orally for seven consecutive days
Experimental: To determine the effects of JBI-589 on NET formation, an in vitro NET assay was performed. In mouse neutrophils, ionomycin stimulation induced more than 90% of H4Cit-positivity and NET formation in approximately 15% of neutrophils. […] To evaluate the in vivo effects, JBI-589 at 50 mg/kg or vehicle (water) was orally administered twice daily for seven consecutive days. Four hours after the last administration, mouse neutrophils were isolated, and then a NET formation assay was performed.
Mouse peripheral blood was collected by retro-orbital puncture in ethylenediaminetetraacetic acid (EDTA) anticoagulated buffer supplemented with 1% endotoxin-free BSA in sterile PBS. Neutrophils were isolated by Percoll gradient centrifugation as described previously. The purity of neutrophils was more than 90% as confirmed by the Wright-Giemsa stain.
Mouse or human neutrophils were resuspended in HEPES-supplemented phenol red-free RPMI1640 medium and 1.5 × 10^4 cells were seeded per well in a 96-well plate. After incubating for 20 min at 37 °C and 5% CO2, the cells were stimulated with vehicle control or ionomycin (Sigma, Catalog No: I24222) (4 µM) for 4 h. Neutrophils were fixed with 4% paraformaldehyde (PFA), washed and permeabilized (0.1% Triton X-100, 0.1% sodium citrate) for 10 min at 4 °C. Subsequently, neutrophils were incubated with blocking buffer (2.5% BSA, 0.5% Tween-20 in 1 × PBS) at room temperature for an hour followed by overnight incubation with the primary antibody against citrullinated histone H4 (H4Cit, 1:250, catalog number: 07-596, Millipore, Burlington, MA). After washing 3 times with PBS, neutrophils were incubated with Hoechst 33342 (1:10,000, catalog number: H3570, Invitrogen). Images were obtained with a Zeiss Axiovert 200 M wide-field fluorescence microscope (Zeiss, Oberkochen, Germany) with the Zeiss AxioVision software. The percentages of H4Cit positive neutrophils and neutrophil extracellular traps (NETs) were calculated by quantifying more than 200 randomly selected cells. […]

CYP2D6 = target: T1, CYP2D6 (Homo sapiens, UniProt P10635); assay: CYP inhibition in human liver microsome, CYP2D6; assay type: in vitro ADME
T1 construct: from tissue; host or cells: human liver microsomes
T1 sequence (P10635 whole entry): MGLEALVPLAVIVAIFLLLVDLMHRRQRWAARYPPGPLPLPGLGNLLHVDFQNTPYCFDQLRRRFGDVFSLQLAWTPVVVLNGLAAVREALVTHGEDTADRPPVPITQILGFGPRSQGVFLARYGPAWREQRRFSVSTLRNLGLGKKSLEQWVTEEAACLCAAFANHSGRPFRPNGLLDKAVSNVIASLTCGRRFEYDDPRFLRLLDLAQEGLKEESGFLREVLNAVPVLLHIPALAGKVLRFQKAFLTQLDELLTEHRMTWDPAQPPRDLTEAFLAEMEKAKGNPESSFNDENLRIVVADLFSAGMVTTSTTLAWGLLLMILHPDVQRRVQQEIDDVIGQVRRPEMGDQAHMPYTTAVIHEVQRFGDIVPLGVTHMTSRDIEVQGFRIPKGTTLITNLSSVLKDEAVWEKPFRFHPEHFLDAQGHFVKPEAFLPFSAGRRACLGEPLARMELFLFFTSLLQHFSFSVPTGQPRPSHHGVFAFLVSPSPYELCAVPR
Experimental: (§1) CYP inhibition: Human liver microsome (0.1–0.5 mg/mL for various CYPs) and appropriate probe substrates (2.5–20 µM) were incubated in potassium phosphate buffer with or without JBI-589 for 5 min at 37 °C. The reaction was initiated by addition of NADPH (1 mM), incubated at 37 °C for 10 min and quenched (0.5% Formic acid in internal standard (IS) containing ACN). Samples were then centrifuged and taken for LC–MS/MS analysis. Percent change in metabolite formation for each substrate under above conditions using formula: Percent inhibition = [1 − (test area ratio/control area ratio)] *100.

CYP2C19 = target: T2, CYP2C19 (Homo sapiens, UniProt P33261); assay: CYP inhibition in human liver microsome, CYP2C19; assay type: in vitro ADME
T2 construct: from tissue; host or cells: human liver microsomes
T2 sequence (P33261 whole entry): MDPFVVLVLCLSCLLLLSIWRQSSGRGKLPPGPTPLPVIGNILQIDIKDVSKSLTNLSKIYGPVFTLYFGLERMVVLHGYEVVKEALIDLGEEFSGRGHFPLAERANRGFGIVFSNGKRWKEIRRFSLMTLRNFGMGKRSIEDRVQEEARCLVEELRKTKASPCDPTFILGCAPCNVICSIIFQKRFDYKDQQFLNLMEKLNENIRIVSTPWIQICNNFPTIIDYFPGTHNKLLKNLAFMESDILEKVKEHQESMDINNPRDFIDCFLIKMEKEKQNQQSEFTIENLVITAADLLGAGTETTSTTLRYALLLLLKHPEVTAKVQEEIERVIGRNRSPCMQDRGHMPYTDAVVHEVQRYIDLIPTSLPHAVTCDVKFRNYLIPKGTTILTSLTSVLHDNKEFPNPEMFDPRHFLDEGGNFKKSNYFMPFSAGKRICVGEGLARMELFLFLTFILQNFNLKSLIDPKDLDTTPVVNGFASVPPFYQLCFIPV
Experimental: as §1

human recombinant PAD1 = target: T3, human recombinant PAD1 (Homo sapiens, UniProt Q9ULC6); assay: PAD1 selectivity biochemical assay measuring ammonia release; conditions: 10 semi-log concentrations, highest concentration tested 30 µM
T3 construct: purchased Cayman Chemicals 10784
T3 sequence (Q9ULC6 1-663): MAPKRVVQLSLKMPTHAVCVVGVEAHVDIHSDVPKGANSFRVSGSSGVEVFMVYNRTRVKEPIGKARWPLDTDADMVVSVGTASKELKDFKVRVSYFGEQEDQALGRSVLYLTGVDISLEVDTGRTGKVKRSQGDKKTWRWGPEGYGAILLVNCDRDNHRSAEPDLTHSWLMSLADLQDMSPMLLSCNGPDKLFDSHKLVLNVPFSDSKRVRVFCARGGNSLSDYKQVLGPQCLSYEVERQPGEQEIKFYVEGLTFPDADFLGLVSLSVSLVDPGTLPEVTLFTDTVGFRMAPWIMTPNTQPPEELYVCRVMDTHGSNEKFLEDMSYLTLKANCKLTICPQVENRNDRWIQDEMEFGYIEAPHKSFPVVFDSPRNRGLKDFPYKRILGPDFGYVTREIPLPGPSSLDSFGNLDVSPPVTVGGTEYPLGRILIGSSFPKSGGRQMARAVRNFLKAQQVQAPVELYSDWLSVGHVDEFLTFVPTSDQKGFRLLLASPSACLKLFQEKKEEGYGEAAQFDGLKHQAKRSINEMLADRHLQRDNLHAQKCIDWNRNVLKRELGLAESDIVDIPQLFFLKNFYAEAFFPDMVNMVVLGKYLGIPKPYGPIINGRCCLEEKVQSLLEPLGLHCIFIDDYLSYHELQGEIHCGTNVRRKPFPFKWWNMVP

human recombinant PAD2 = target: T4, human recombinant PAD2 (Homo sapiens, UniProt Q9Y2J8); assay: PAD2 selectivity biochemical assay measuring ammonia release; conditions: 10 semi-log concentrations, highest concentration tested 30 µM
T4 construct: purchased Cayman Chemicals 10785
T4 sequence (Q9Y2J8 whole entry): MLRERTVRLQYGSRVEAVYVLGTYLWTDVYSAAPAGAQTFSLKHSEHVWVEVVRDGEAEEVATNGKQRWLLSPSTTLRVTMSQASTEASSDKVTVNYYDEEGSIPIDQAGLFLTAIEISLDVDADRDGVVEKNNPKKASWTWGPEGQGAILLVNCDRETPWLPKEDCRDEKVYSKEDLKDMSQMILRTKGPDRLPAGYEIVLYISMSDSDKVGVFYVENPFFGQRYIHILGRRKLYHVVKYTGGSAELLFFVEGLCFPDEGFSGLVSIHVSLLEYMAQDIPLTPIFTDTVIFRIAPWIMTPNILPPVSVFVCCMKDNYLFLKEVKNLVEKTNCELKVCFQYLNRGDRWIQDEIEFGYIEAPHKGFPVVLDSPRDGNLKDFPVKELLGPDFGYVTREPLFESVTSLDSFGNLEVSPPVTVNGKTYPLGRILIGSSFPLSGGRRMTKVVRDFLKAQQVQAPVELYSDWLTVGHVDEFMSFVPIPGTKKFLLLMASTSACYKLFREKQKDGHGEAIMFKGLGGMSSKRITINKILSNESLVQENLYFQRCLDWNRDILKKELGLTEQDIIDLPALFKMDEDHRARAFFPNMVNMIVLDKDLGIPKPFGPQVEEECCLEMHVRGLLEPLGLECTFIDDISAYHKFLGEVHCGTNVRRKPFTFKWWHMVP

[1] = tested on: collagen induced arthritis; assay: Collagen induced arthritis model in DBA/1 mice; assay type: in vivo; conditions: Dexamethasone dose not given
[2] = neutrophils isolated 4 h after last administration, ionomycin 4 µM
[3] = predicted from % inhibition, text says major CYPs tested
[4] = JBI-589 50 mg/kg po BID, Etanercept 25 mg/kg IP day 31–45

## Cc1c(-c2cc3ccccc3n2Cc2ccc(F)cc2)nc2cc(C(=O)N3CCC[C@@H](N)C3)ccn12 [JBI-589, (R)-(3-aminopiperidin-1-yl)(2-(1-(4-fluorobenzyl)-1H-indol-2-yl)-3-methylimidazo[1,2-a]pyridin-7-yl)methanone]
Mouse neutrophils; [2]
  H4Cit positivity compared with vehicle: reduced both H4Cit positivity and NET formation significantly
  NET formation compared with vehicle: reduced both H4Cit positivity and NET formation significantly
Mouse neutrophils; vehicle 88%, p = 0.01
  percentage of H4Cit positive cells: 83%
CYP2D6; human liver microsomes, 10 µM, human liver microsome, read-out: CYP2D6 inhibition (% inh @10 µM)
  inhibition at 10 min, 10 µM: < 50%
CYP2D6; [3]
  IC50: > 10 µM
CYP2C19; human liver microsomes, 10 µM, human liver microsome, read-out: CYP2C19 inhibition (% inh @10 µM)
  inhibition at 10 min, 10 µM: < 50%
CYP2C19; [3]
  IC50: > 10 µM
Human recombinant PAD1
  inhibitory activity against PAD1: did not have any inhibitory activity
Human recombinant PAD2
  inhibitory activity against PAD2: did not have any inhibitory activity
[1]; JBI-589 50 mg/kg po BID day 0-45, Etanercept 25 mg/kg IP day 31–45
  clinical score: significantly decreased
[1]; [4]
  bone erosion (histopathology): significantly decreased
  joint inflammation (histopathology): significantly decreased
  pannus formation (histopathology): significantly decreased
[1]; day 45, JBI-589 50 mg/kg po BID
  spleen weight: no adverse effect
[1]; end of study, JBI-589 50 mg/kg po BID
  body weight: no adverse effect
